Laboratory results reported in paper PMC2909366 (Journal of biological inorganic chemistry : JBIC : a …, 2010).
pKd: −log10 of the molar value.

How the values were obtained:
chlorite dismutase (Cld) [1] = target: T1, chlorite dismutase (Cld) (Dechloromonas aromatica (nom. nud.), UniProt Q47CX0); experiment: biochemical
chlorite dismutase (Cld) [2] = target: T1, chlorite dismutase (Cld); experiment: X-ray co-crystal structure; assay type: binding

T1 sequence (Q47CX0 35-282): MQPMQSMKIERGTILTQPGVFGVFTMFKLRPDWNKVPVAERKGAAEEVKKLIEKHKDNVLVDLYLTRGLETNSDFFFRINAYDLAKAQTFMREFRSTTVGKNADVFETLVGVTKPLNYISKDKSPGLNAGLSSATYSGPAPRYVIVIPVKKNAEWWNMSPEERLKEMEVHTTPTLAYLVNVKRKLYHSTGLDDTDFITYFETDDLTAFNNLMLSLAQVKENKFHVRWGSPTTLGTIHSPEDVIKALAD

## CC(=O)O [acetate]
Chlorite dismutase (Cld) [1]
  pKd: 1.44

## O=NO [nitrite]
Chlorite dismutase (Cld) [2]
  pKd: 2.95
